Source: patent US20190247353A1, “ACNE STRAIN-SELECTIVE ANTIBACTERIAL AGENT” (MOMOTANI JUNTENKAN CO., LTD., priority 2016, published 2019)

Legend:
[1] = system: HL043PA1 strain (RT5 strain) and HL110PA3 strain (RT6 strain); assay: Coculture test, coculturing strain suspension-2; format: cell-based, Propionibacterium acnes; design: dose or concentration left out as unconfirmed; settings: pH 6.0, 2 days (FIG. 2b)
From the text: (§1) Acne bacteria strains (HL053PA1 strain (RT4 strain), HL043PA1 strain (RT5 strain), and HL110PA3 strain (RT6 strain)) were respectively precultured in the same manner as in Example 1.
(§2) The HL053PA1 strain (RT4 strain) and the HL110PA3 strain (RT6 strain) were suspended in a modified GAM broth liquid medium (pH 6.0) respectively at a concentration of 5.0×10^4 cfu/mL. Similarly, the HL043PA1 strain (RT5 strain) and the HL110PA3 strain (RT6 strain) were suspended respectively at a concentration of 5.0×10^4 cfu/mL. The suspensions were respectively designated as coculturing strain suspensions-1, and -2.
(§3) […] Using a sample to which only 0.5% of DMSO was added as a control, it was confirmed that the influence of the solvent on the growth of each bacterium strain could be neglected.
(§4) The test sample was statically cultured under anaerobic conditions at 37° C. for 2 days. After the culture, part of the culture solution was cultured under anaerobic conditions on a GAM broth agar plate (pH 7) for 3 days. The bacterium strains were identified based on the morphology (particularly size) of the emerged colonies, and the viable cell count (cfu/mL) of each bacterium strain was measured. From the measurement results, the proportion of each bacterium strain in the entire microbial cells was calculated (FIG. 2).

[2] = system: HL053PA1 strain (RT4 strain) and HL110PA3 strain (RT6 strain); assay: Coculture test, coculturing strain suspension-1; format: cell-based, Propionibacterium acnes; design: dose or concentration left out as unconfirmed; settings: pH 6.0, 2 days (FIG. 2a)
From the text: as §1, §2, §3, §4

**Q.** What does the source list for `CCCCCCCCCCCCCCC(=O)O` [Pentadecanoic acid (C15:0), Pentadecanoic acid]?
**A.** Growth of the dominant strain in acne patients in coculture with RT6 strain [1]: suppressed selectively; Growth of the dominant strain in acne patients in coculture with RT6 strain [2]: suppressed selectively
